Target: T1, RNase P holoenzyme (Thermotoga maritima, UniProt Q9X1H4)
T1 construct: GST (cleaved yes); made in house; host or cells: E. coli BL21(DE3)pLysS
T1 sequence (Q9X1H4 1-117): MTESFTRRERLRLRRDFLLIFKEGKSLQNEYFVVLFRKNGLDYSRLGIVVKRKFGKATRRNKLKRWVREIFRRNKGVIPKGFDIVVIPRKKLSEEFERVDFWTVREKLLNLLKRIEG
Test: Biolayer interferometry binding to immobilized RNase P holoenzyme
Parameters: species or system T. maritima
Conditions: BLI, holoenzyme at 400 nM immobilized on Ni-NTA
Experimental: Real-time binding assays of the holoenzyme, P RNA, P protein, the substrate minihelix and the 5′-leader to individual compounds were performed by biolayer interferometry using an Octet RED96 system (ForteBio). For the holoenzyme or P RNA, a 5′ biotinylated RNA oligonucleotide with the sequence 5′biotin-CAUUCCAGACGAU was immobilized on Super Streptavidin (SSA) biosensors. Then, a modified P RNA or holoenzyme was added. The P RNA modification consisted of a sequence with part of the P1 stem sequence complementary to the biotinylated oligonucleotide (AUCGUCUGGA) (Supplementary Figure S23A). P1 is far from the active site or other regions involved in specific interactions (Supplementary Figure S23B) ([19]). The activity of this construct was indistinguishable from the wild-type holoenzyme. Alternatively, the holoenzyme was immobilized through the His-tagged P protein from T. maritima at 0.05 mg/ml (3.4 μM) on Ni-NTA biosensors. […] Kinetic binding parameters were calculated using Data Analysis 8.2 (ForteBio, Inc.). […]
Figure 4. […] Symbols represent the mean ± standard error as determined from three independent experiments at each concentration. […] RNase P holoenzyme was immobilized on Ni-NTA biosensors, incubated with purpurin at varying concentrations (0–400 μM), and then the association and dissociation pre-tRNA was monitored. […]

`O=C1c2ccccc2C(=O)c2c(O)c(O)cc(O)c21` [Purpurin, 1,2,4-trihydroxyanthraquinone] was tested, and the Kd was 13.2 µM.

From article PMC6614837 (Nucleic Acids Research, 2019)
